# What was measured:
# ENaC [1] = target: T1, ENaC (Homo sapiens, UniProt P37088+P51168+P51170); test: Transepithelial voltage (PD), thin film conditions, human bronchial epithelial cultures; format: cell-based; set-up: reduction of transepithelial voltage: dose or concentration left out as unconfirmed
# T1 construct: measured the transepithelial voltage under thin film conditions in human bronchial epithelial cultures; endogenous in cells; host or cells: primary human bronchial epithelial cultures (normal or CF donors)
# T1 sequence (P37088 1-669): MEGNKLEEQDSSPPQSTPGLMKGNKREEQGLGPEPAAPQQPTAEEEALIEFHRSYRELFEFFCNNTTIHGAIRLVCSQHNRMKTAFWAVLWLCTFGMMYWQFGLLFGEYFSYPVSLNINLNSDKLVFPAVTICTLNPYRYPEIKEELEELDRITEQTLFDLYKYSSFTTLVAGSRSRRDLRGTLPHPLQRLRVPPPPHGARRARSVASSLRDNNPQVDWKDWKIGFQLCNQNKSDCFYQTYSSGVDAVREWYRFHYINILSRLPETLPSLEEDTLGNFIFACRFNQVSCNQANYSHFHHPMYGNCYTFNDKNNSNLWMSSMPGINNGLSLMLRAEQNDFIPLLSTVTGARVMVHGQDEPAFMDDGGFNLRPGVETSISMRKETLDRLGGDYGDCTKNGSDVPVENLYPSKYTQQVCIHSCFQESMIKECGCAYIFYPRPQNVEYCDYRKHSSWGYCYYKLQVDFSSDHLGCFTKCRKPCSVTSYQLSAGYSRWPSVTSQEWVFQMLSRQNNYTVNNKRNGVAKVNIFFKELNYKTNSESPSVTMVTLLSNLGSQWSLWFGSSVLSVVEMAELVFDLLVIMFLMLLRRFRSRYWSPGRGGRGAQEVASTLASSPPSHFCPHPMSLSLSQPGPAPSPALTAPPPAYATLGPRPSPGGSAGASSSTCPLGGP
# T1 sequence (P51168 1-640): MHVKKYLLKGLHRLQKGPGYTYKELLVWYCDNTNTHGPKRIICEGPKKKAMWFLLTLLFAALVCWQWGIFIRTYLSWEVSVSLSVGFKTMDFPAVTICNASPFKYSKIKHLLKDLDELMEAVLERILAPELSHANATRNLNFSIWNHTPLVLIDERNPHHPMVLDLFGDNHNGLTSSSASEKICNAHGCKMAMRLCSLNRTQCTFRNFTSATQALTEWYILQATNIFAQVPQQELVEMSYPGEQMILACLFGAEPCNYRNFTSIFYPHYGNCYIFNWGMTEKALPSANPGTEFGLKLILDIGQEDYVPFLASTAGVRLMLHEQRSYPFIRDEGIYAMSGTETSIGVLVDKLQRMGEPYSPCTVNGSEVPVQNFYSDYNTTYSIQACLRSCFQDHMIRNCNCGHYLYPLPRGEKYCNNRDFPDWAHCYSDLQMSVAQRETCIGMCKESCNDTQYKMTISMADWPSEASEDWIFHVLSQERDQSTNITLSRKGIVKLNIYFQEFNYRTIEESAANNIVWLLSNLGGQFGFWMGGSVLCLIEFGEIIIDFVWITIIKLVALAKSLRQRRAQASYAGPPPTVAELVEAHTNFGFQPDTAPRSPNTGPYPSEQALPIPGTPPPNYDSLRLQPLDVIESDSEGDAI
# T1 sequence (P51170 1-649): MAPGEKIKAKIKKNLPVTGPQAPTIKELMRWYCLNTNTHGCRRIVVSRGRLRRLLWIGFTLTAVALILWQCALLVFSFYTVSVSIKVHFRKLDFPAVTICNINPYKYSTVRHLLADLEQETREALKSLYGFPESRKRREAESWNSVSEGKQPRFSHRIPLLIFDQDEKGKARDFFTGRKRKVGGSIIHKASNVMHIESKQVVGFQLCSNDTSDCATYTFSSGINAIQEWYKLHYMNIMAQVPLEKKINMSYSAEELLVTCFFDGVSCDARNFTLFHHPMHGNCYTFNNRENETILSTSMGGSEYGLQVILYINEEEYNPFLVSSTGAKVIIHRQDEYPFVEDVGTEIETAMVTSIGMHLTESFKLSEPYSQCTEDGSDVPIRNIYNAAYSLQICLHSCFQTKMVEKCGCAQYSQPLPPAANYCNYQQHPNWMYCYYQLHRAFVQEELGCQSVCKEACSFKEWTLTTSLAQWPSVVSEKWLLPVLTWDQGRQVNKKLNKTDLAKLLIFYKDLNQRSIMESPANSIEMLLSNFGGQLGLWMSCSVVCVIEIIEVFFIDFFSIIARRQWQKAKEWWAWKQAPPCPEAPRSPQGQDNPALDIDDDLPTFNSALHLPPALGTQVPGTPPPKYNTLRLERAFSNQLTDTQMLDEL
# Excerpt: Tissue procurement and cell culture: Cells were harvested by enzymatic digestion from human bronchial tissue as previously described under a protocol approved by the UNC School of Medicine IRB (Tarran et al., J. Gen. Physiol. 127:591 (2006)). Human excess donor lungs and excised recipient lungs were obtained at the time of lung transplantation from portions of main stem or […] bronchi and cells were harvested by enzymatic digestion. All preparations were maintained at an air-liquid interface in a modified bronchial epithelial medium and used 2-5 weeks after seeding on 12 mm T-Clear inserts (Corning Costar) coated with human placental type VI collagen (Sigma). Phosphate buffered saline (PBS) was used for washing human bronchial epithelial culture mucosal surfaces. HBECs were maintained at an air-liquid interface in a modified bronchial epithelial growth medium (BEGM) with 5% CO2 at 37° C. and used 2-5 weeks after seeding on 12-mm T-clear inserts (Corning-Costar, Corning, N.Y., USA) (Randell, Methods Mol. Biol. 742:285 (2011)).
# (§1) A single-barreled potential difference-sensing electrode was placed in the airway surface liquid by micromanipulator and used in conjunction with a macroelectrode in the serosal solution to measure transepithelial voltage using a voltmeter (World Precision Instruments). […] Transepithelial resistance was routinely measured using the EVOM system (WPI) as previously described (Tarran et al., J. Gen. Physiol. 127:591 (2006)).
# ENaC [2] = target: T1, ENaC; test: Transepithelial electrical resistance in human bronchial epithelial cultures; format: cell-based; conditions: 50 ng/ml SPLUNC1 30 min or amiloride 10 min; effects not additive
# Excerpt: as §1, with “([…]” for “(Tarran”
# βENaC = target: T2, βENaC (Homo sapiens, UniProt P51168); test: Biotinylated peptide pull-down of ENaC subunits from HEK293T cells; format: binding; conditions: subunits individually expressed, biotinylated peptide
# T2 construct: expressed in transfected cells; host or cells: HEK293T cells (lysate)
# T2 sequence (P51168 1-640): T1 sequence (P51168 1-640)
# Description: HEK293T cells were transfected with double-tagged human ENaC subunits with HA and V5 epitopes at the N- and C-termini, respectively, in combination with wild-type untagged subunit cDNA. When all three ENaC subunits were expressed, 0.5 μg of each subunit were transfected per well. When expressed individually, 0.75 μg of the subunit were transfected per well. The transfected cells were lysed 24 h later using NP-40 buffer with 1× complete EDTA-free protease inhibitor (Roche, Basel, Switzerland). The lysate was centrifuged at 16,300×g for 15 minutes at 4° C. and the supernatant collected. Protein concentration was determined using the BCA assay and 500 μg of protein plus 0.25 mg peptide and 100 μL of neutravidin were added to a spin column and rotated end-over-end at 4° C. for 24 h (all ThermoFisher Scientific, Rockford, Ill., USA). Flow-through was collected by centrifugation at 1000×g for 30 s. The beads were then washed 5× with NP-40 buffer. Bound protein was eluted by boiling at 95° C. for 10 minutes in 75 μL of 2×LDS NuPAGE sample buffer with 1× sample reducing agent followed by centrifugation at 16,300×g for 2 minutes. Samples were resolved on 4-12% Bis-Tris gels in MES and transferred to a nitrocellulose membrane using iBlot, setting P3 for 8 min (Invitrogen, Carlsbad, Calif., USA). The membrane was probed using 1:1000 anti-V5 antibody (Invitrogen, Carlsbad, Calif., USA) overnight at 4° C. in 3% fish gelatin in TBS-T. The blot was then incubated for 1 h at room temperature with an ECL sheep anti-mouse IgG secondary antibody and detected by ECL reagent (ThermoFisher Scientific, Waltham, Mass., USA) or by incubation with a goat anti-mouse IRDye secondary antibody and analyzed by an Odyssey infrared imaging system (LI-COR Biosciences, Lincoln, Nebr., USA).
# Peptide pull-down assays were performed as described above. Samples were eluted by the addition of 100 μL of 0.1 M sodium citrate, pH 5.5, 0.1% SDS to the beads and incubating at 100° C. for 2 minutes, followed by centrifugation at 16,300×g for 2 minutes. […]
# ENaC [3] = target: T1, ENaC; test: ASL height 6 h after exposure, alanine scan of S18; format: cell-based
# Description: To label the ASL, PBS containing 10 kDa Rhodamine dextran (0.2-2 mg/mL; Invitrogen, Carlsbad, Calif., USA) was added to HBEC mucosal surfaces as previously described (Tarran et al., Mol. Cell 8:149 (2001)). When added, peptides with or without 100 nM neutrophil elastase, 1 U/mL aprotinin, activated neutrophil supernatant (ANS) (Haynes et al., Am. J. Physiol. Heart Circ. Physiol. 294:H379 (2008)) or 10 μM sivelestat (Sigma-Aldrich, St Louis, Mo., USA) were added to the mucosal surface along with the Rhodamine dextran. Bumetanide (100 μM) was added to the serosal solution.
# ASL height was measured 6 h after exposure to vehicle, control peptide, S18 or S18 with specific residues mutated to alanine as outlined in FIG. 31. […] NB, G1, G2 and A18 were not mutated. […] All n=6.
# serine proteases = test: Endogenous protease activity (BGAR-MCA cleavage) on mucosal surface of human bronchial epithelial cultures; format: cell-based
# Description: (§2) For cell-free assays, reactions were carried out in 50 μl Ringer in a 96 well plate format with 100 μM BGAR-MCA. To measure endogenous protease activity in human bronchial epithelial cultures, 30 μl Ringer with 100 μM BGAR-MCA were placed directly onto the mucosal surfaces of human bronchial epithelial cultures grown on 12 mm T-clear inserts and the cultures were assayed in 12 well plates.
# trypsin = test: Cell-free fluorogenic assay, trypsin cleavage of BGAR-MCA; format: biochemical; conditions: 50 ng/ml rSPLUNC1 or 2 U/ml aprotinin; 1.0 or 0.3 U/ml trypsin
# Description: as §2
# [4] = target: T3, αENaC-eGFP and βENaC-mCherry (Homo sapiens, UniProt P37088+P51168); test: Acceptor-photobleaching FRET between fluorescently tagged ENaC subunits; format: cell-based; conditions: one hour of exposure
# T3 construct: expressed in transfected cells
# Excerpt: Ai, cartoon of αENaC-eGFP and βENaC-mCherry under basal conditions (γENaC not shown). Aii We hypothesize that S18 binding to the extracellular loop of βENaC (1) induces a conformational change in ENaC which is reflected as altered intracellular FRET (2). This change may facilitate NEDD4-2-induced ubiquitination (3), leading to internalization of αβγENaC (4). […] In contrast, exposure to aprotinin had no effect. All n=8-10. C, Typical confocal images of HEK cells expressing αγENaC and βENaC-eGFP before and 1 h after 100 μM S18. Cell outlines are traced in white.
# Since ENaC is regulated by NEDD4-2 binding to its C-termini, which leads to ubiquitination of its N-termini and internalization, we propose that S18 causes a conformational change in ENaC, leading to increased ubiquitination followed by internalization (FIG. 21A). As a first step towards understanding the mechanism of action of SPLUNC1, we performed FRET on fluorescently tagged ENaCs. […] Furthermore, βENaC-eGFP internalized upon S18 binding (FIG. 21C), consistent with our surface biotinylation data from oocytes.
# CF HBECs = conditions: 8 h ASL height
# Description: To label airway surface liquid, Ringer containing Texas Red-dextran (2 mg/ml; Invitrogen) was added to human bronchial epithelial culture mucosal surfaces. Perfluorocarbon was added mucosally to prevent evaporation of the airway surface liquid and the culture placed in a chamber containing 100 μl Ringer on the stage of a Leica SP5 confocal microscope with a 63× glycerol immersion objective. 5 points per culture were scanned and an average airway surface liquid height determined. For confocal microscopy human bronchial epithelial cultures were bathed serosally in a modified Ringer solution containing (mM): 116 NaCl, 10 NaHCO3, 5.1 KCl, 1.2 CaCl2, 1.2 MgCl2, 20 TES, 10 glucose, pH 7.4). At all other times, human bronchial epithelial cultures were maintained in a modified BEGM growth medium which contained 24 mM NaHCO3 gassed with 5% CO2.
molecule,measurement,setting,value
"N=C(N)NC(=O)c1nc(Cl)c(N)nc1N [amiloride, reference compound]",reduction of transepithelial voltage,"ENaC [1]; amiloride for 10 min (FIG. 4 legend), n=12",54%
same,increase of transepithelial electrical resistance,ENaC [2],~33%
"ADGGLLLLNNPPPPQTVV (Control peptide sequence) [ABC, reference compound]",binding to βENaC (pull-down),βENaC,No β-ENaC was observed in the elution
same,ASL height,ENaC [3],no effect on ASL height
aprotinin [reference compound],BGAR-MCA cleavage on human bronchial epithelial mucosal surfaces,serine proteases,inhibited
same,inhibition of trypsin cleavage of fluorogenic substrate BGAR-MCA,trypsin,~100%
same,FRET between αENaC-eGFP and βENaC-mCherry,[4],no effect
same,CF ASL hyperabsorption,CF HBECs,reduces CF ASL hyperabsorption
same,CF ASL hyperabsorption in the presence of neutrophil elastase,CF HBECs; neutrophil elastase,did not prevent neutrophil elastase from activating ENaC
same,rate of inhibition of the transepithelial voltage,"ENaC [1]; rSPLUNC1 vs aprotinin addition, effects not additive",identical rates
